Measured values reported in patent US20240239743A1, “1-(4-{1-[(E)-4-CYCLOHEXYL-3-TRIFLUOROMETHYLBENZYLOXYIMINO]-ETHYL}-2-ETHYL-BENZYL)-AZETIDINE-3-CARBOXYLIC ACID, (E)-BUT-2-ENEDIOIC ACID” (Novartis AG, priority 2008, published 2024).

Tests used:
[1] = pressure of 10 tons for 5 minutes; Raman microscope
Procedure: Crystalline form A was also tested for pressure stability by exposing a few milligrams of this form to a pressure of 10 tons for 5 minutes.

[2] = Dynamic Vapour Sorption (hygroscopicity); assay type: physicochemical; conditions: 50-0-95-50% r.h.
Excerpt: Dynamic Vapour Sorption measurements were taken using a DVS-1 water vapour sorption analyzer (Surface Measurement Systems Ltd.) or a Projekt Messtechnik SPS11-100n. The sample was allowed to equilibrate at 50% r.h. before starting a pre-defined humidity program (50-0-95-50% r.h., scanning with 5% Δr.h. hour-1 and with several isohumid equilibration periods).

[3] = Stability of hemifumarate salt solution relative to free base solution at elevated temperature; assay type: physicochemical; conditions: solution/suspension in ethanol; 40° C., 50° C. and 60° C. for one week; compared with free base
Procedure: 30 g of compound I was prepared using the method of Example 3 of WO2004/103306. The hemifumarate salt of the invention was then prepared by reacting a suspension of 30.0 g of compound I and […] fumaric acid (5% conc.) in 200 g ethanol absolute (>99.9%) at room temperature (25° C.).
The stability of the hemifumarate salt solution relative to the free base solution was then tested by subjecting both solutions to conditions of elevated temperature (40° C., 50° C. and 60° C.) for a period of one week.

Structure (SMILES) | pressure stability (change in crystal form) [1] | hygroscopicity [2] | stability of the hemifumarate salt solution relative to the free base solution [3]
CCc1cc(/C(C)=N/OCc2ccc(C3CCCCC3)c(C(F)(F)F)c2)ccc1CN1CC(C(=O)O)C1.CCc1cc(/C(C)=N/OCc2ccc(C3CCCCC3)c(C(F)(F)F)c2)ccc1CN1CC(C(=O)O)C1.O=C(O)/C=C/C(=O)O [Crystalline Form A] | no change in form was observed | low hygroscopicity | 
CCc1cc(/C(C)=N/OCc2ccc(C3CCCCC3)c(C(F)(F)F)c2)ccc1CN1CC(C(=O)O)C1.O=C(O)/C=C/C(=O)O [hemifumarate salt, 1-(4-{1-[(E)-4-Cyclohexyl-3-trifluoromethyl-benzyloxyimino]-ethyl}-2-ethyl-benzyl)-azetidine-3-carboxylic acid, (E)-but-2-enedioic acid] |  |  | superior stability
